The record followed here is patent publication US20220218679A1, “NOVEL COMPOUNDS AND PHARMACEUTICAL COMPOSITIONS THEREOF FOR THE TREATMENT OF INFLAMMATORY DISORDERS” (Galapagos NV, priority 2019, published 2022).

Data set [1] addresses T1, human IRAK-4 (Homo sapiens, UniProt Q9NWZ3).
T1 construct: purchased Carna Biosciences 09 145
T1 sequence (Q9NWZ3 1-460): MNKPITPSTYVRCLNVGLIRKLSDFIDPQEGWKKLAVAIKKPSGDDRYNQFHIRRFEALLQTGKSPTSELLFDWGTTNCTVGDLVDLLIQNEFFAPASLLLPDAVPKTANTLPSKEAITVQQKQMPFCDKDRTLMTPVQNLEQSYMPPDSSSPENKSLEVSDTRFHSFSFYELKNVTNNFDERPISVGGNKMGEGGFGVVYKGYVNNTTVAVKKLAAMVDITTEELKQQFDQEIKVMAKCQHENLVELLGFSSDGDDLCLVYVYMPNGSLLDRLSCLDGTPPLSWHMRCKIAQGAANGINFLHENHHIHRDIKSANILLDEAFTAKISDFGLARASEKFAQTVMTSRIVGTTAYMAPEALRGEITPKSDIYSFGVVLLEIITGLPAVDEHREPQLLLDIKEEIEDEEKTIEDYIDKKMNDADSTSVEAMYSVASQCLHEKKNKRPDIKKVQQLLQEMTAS
As to the kind of experiment: Phosphorylation IC50 determination for human IRAK-4 (ADP-Glo kinase assay). The data set is classed as biochemical. To be noted: RIP140 substrate, Km ATP, read-out: IRAK4 IC50. Here is the method:
3.1. Phosphorylation IC50 Determination for Human IRAK-4
The phosphorylation of the substrate RIP140 (SEQ IDi1) by IRAK4 at Km ATP was detected with the ADP-Glo Kinase Assay (Promega, Cat #V9103), a luminescent kinase assay which measures the ADP formed from a kinase reaction. (Zegzouti et al., 2009) In a second step the kinase reaction is terminated and all the remaining ATP was depleted. In a final step the ADP was converted into ATP and this newly synthesized ATP was measured by using a luciferase/luciferin reaction with a luminescent reader. The luminescent signal positively correlated with kinase activity, in particular kinase inhibition giving a decrease of the luminescent signal.
For the semi-automated assay, the positive control (100% inhibition) was prepared by diluting 10 mM staurosporine stock mixture (20 μL) in water (3.8 mL) and DMSO (180 μL), thus resulting in a […] staurosporine solution at 1% DMSO (final concentration after further dilution in the kinase reaction).
For the automated assay, no pre-dilution of the 10 mM staurosporine stock was made. 10 mM staurosporine was spotted directly in the assay plate using acoustic dispensing and complemented with DMSO to result in a similar final concentration as mentioned above.
For the semi-automated assay, the negative control (0% inhibition) was prepared by mixing water (3.8 mL) and DMSO (200 μL) resulting in a final concentration of 1% DMSO after further dilution in the kinase reaction. For the automated assay no pre-dilution of DMSO was done. 100% DMSO was spotted directly on the assay plate.
The assay buffer solution was prepared at a concentration corresponding to 5 fold the final (most diluted) assay concentration by mixing a solution of 125 mM TRIS pH 7.5+0.05% Triton X-100+2.5 mM EGTA (5.27 mL) with 1M MgCl2 (72 μL), 1M DTT (57.6 μL), and 200 mM MnCl2 (360 μL).
For example, for the semi-automated method, the enzyme-substrate mixture was prepared by mixing water (3999 μL), assay buffer solution (1380 μL), 1 mM RIP140 (138 μL—SEQ ID1), and 200 ng/mL IRAK 4 (3.45 μL Carna Biosciences, 09 145).
For semi-automated method, the ATP mixture was prepared at a concentration corresponding to 2.5 fold the final (most diluted) assay concentration of the semi-automated method and 1.5 fold the final (most diluted) assay concentration of the automated method. For example, for the semi-automated method, the ATP mixture was prepared by mixing water (4126 μL), assay buffer solution (1380 μL), and 10 mM ATP (13.80 μL).
The assay was performed either in a semi-automated or fully automated manner. The assay volume and the incubation time of the ADP detection were different accordingly the method used.
3.1.3.1. Semi-Automated Assay
The compounds were prepared as a serial dilution of 10 point dose responses with 1/5 dilution steps in 100% DMSO starting from 2 mM highest concentration, diluted 1/20 in water. 1 μL was transferred dry to the assay plates.
On each assay plate 32 wells of each control (positive & negative) were added, followed by 2 μL enzyme-substrate mixture.
The reaction was started by adding 2 μL diluted ATP (final concentration Km ATP) on the assay plates. Plates were centrifuged for a few seconds at 1000 rpm followed by an incubation at r.t. for 120 min.
The reactions were stopped and the unconsumed ATP was depleted by adding 5 μL ADP-glo Reagent (Promega, Cat #V9103) to the reaction. The plates were quickly centrifuged at 1000 rpm and incubated at r.t. for 40 min corresponding to full ATP depletion.
The ADP was converted back to ATP and luciferase and luciferin were introduced to detect ATP by adding 10 μL kinase detection reagent (Promega, Cat #V9103) to the reaction. The plates were centrifuged for a few seconds at 1000 rpm and incubated at r.t. for a further 30 min.
Luminescent read out was performed on an Envision luminescent reader (Perkin Elmer). […]
For orientation: ADP-Glo first removes unused ATP, then detects ADP through luciferase.

For data set [2], the system named is Human Hepatocyte. As to the kind of experiment: Metabolic stability in hepatocytes (human). The data set is classed as in vitro ADME. Conditions: 1 μM test compound, cryopreserved human hepatocytes. Here is the method:
4.6. Metabolic Stability in Hepatocytes
The aim of this assay is to determine the metabolic stability of the compound in hepatocytes (cryopreserved) of different species. Low hepatocyte stability may result in the formation of unwanted metabolites, high clearance, and therefore is not desirable.
The decrease in parent was assessed by measuring the percentage remaining by LC-MS/MS analysis.
A 10 mM stock solution of test compound in DMSO was first diluted in DMSO to 3 mM, and then in modified Krebs-Henseleit buffer (Sigma, K3753) to 5 μM. This compound dilution was added to a suspension of pooled cryopreserved hepatocytes (BioreclamationIVT) at 37° C. under gentle shaking.
Final reaction conditions were: 1 μM of test compound, 0.03% DMSO, 0.5 million viable hepatocytes/mL, and 75 μL incubation volume.
Testosterone (1 μM) and 7-hydroxycoumarin (1 μM) were used, respectively as phase I and phase II metabolic reaction controls.
After 0, 10, 20, 45, 90, 120 and 180 min of incubation, the reaction was terminated with 225 μL of MeCN:MeOH (2:1) containing 100 ng/mL of diclofenac as analytical internal standard. Samples were mixed, centrifuged and the supernatant analyzed by LC-MS/MS.
The instrument responses (ratios of test compound and internal standard peak areas) were referenced to the zero time point samples (considered as 100%) in order to determine the percentage of compound remaining.
Plots of percentage compound remaining were used to determine the intrinsic clearance in the hepatocyte incubations using the following equations:
Scaled Clint [L/h/kg]=Clint[μL/min/10^6 cells]*#(10^6) cells/g liver*60*( 1/10^6) Scaled Clint unbound [L/h/kg]=Clint [L/h/kg]/Fu,inc where: fu,inc equals hepatocyte binding, derived from microsomal binding (fu,mic) by following equation: […]

For the compound `CCOc1cn2nc(CCC(C)(C)O)cc2cc1NC(=O)c1cccn(C2CC2)c1=O` [Compound 17, 1-cyclopropyl-N-[6-ethoxy-2-(3-hydroxy-3-methyl-butyl)pyrazolo[1,5-a]pyridin-5-yl]-2-oxo-pyridine-3-carboxamide], in data set [1], the concentration for half-maximal inhibition (IC50) (commonly the concentration needed to halve the response being measured) lay in the range of 0.1 to 5 nM. For the same compound, the “Human Hepatocyte stability (Perc. remaining at 90 min)” value in data set [2] worked out at 87.25 Perc.

For the compound `CCOc1cn2nc(CCC(C)(C)O)cc2cc1NC(=O)c1cccn(C)c1=O` [Compound 18, N-[6-ethoxy-2-(3-hydroxy-3-methyl-butyl)pyrazolo[1,5-a]pyridin-5-yl]-1-methyl-2-oxo-pyridine-3-carboxamide], the concentration for half-maximal inhibition (IC50) in data set [1] lay in the range of 0.1 to 5 nM. The “Human Hepatocyte stability (Perc. remaining at 90 min)” value in data set [2] was 90.8 Perc.

`CC(C)(O)CCc1cc2cc(NC(=O)c3cccc(C(F)F)n3)c(C(N)=O)cn2n1` [Compound 20, 5-[[6-(difluoromethyl)pyridine-2-carbonyl]amino]-2-(3-hydroxy-3-methyl-butyl)pyrazolo[1,5-a]pyridine-6-carboxamide]: the concentration for half-maximal inhibition (IC50) in data set [1] lay in the range of 0.1 to 5 nM. Also, the “Human Hepatocyte stability (Perc. remaining at 90 min)” value in data set [2] came out at 81.65 Perc.

Take `COc1cn2nc(CCC(C)(C)O)cc2cc1NC(=O)c1cccn(C2CCC2)c1=O` [Compound 21, 1-cyclobutyl-N-[2-(3-hydroxy-3-methyl-butyl)-6-methoxy-pyrazolo[1,5-a]pyridin-5-yl]-2-oxo-pyridine-3-carboxamide]: in data set [1], the IC50 is 0.1 to 5 nM. The “Human Hepatocyte stability (Perc. remaining at 90 min)” value in data set [2] amounted to 92.15 Perc.

As to `COc1cn2nc(CC(F)C(C)(C)O)cc2cc1NC(=O)c1cccn(C2CC2)c1=O` (centres unmarked) [Compound 22, 1-cyclopropyl-N-[2-(2-fluoro-3-hydroxy-3-methyl-butyl)-6-methoxy-pyrazolo[1,5-a]pyridin-5-yl]-2-oxo-pyridine-3-carboxamide], the IC50 in data set [1] is 0.1 to 5 nM. In data set [2], the “Human Hepatocyte stability (Perc. remaining at 90 min)” value is reported as 100.05 Perc.

On to `[2H]C([2H])([2H])C(O)(CCc1cc2cc(NC(=O)c3cccn(C4CC4)c3=O)c(OC)cn2n1)C([2H])([2H])[2H]` [Compound 23, 1-cyclopropyl-N-[6-methoxy-2-[4,4,4-trideuterio-3-hydroxy-3-(trideuteriomethyl)butyl]pyrazolo[1,5-a]pyridin-5-yl]-2-oxo-pyridine-3-carboxamide], for which the IC50 in data set [1] lay in the range of 0.1 to 5 nM. Besides, the “Human Hepatocyte stability (Perc. remaining at 90 min)” value in data set [2] was found to be 101.45 Perc.

As to `[2H]C([2H])([2H])Oc1cn2nc(CCC(C)(C)O)cc2cc1NC(=O)c1cccn(C2CC2)c1=O` [Compound 24, 1-cyclopropyl-N-[2-(3-hydroxy-3-methylbutyl)-6-(trideuteriomethoxy)pyrazolo[1,5-a]pyridin-5-yl]-2-oxopyridine-3-carboxamide], the half-inhibitory concentration (IC50) in data set [1] is 0.1 to 5 nM. In addition, in data set [2], the “Human Hepatocyte stability (Perc. remaining at 90 min)” value was 105 Perc.
